Reference: article PMC10355191 (Chemical research in toxicology, 2023)

Biological target: α2A-adrenergic receptor (Homo sapiens, UniProt P08913)
Sequence (P08913 whole entry): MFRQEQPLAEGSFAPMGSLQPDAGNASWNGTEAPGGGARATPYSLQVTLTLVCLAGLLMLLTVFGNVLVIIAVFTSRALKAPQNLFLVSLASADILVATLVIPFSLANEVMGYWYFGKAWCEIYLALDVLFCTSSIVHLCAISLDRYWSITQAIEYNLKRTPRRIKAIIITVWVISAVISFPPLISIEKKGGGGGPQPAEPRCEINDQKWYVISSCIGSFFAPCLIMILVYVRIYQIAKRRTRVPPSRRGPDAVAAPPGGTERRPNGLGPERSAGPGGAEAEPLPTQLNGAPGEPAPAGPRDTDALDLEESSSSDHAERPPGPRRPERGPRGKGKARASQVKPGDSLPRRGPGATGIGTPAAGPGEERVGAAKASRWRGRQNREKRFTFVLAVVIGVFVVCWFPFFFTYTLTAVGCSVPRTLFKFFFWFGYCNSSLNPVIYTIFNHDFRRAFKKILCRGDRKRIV

N=C(N)N/N=C/c1c(Cl)cccc1Cl [E-GA, trans-guanabenz]
% inhibition at 1 μM: 50
